Data from patent US9115073B2, “1,3-diphenylpropane derivatives, preparations and uses thereof” (GENFIT, priority 2011, dated 2015).

Tests used:
Format in all cases: cell-based
[1] = molecular target: T1, hPPARgamma (Homo sapiens, UniProt P37231); experiment: Gal4-hPPARgamma transactivation assay in COS-7 cells (luciferase); details: for Gal4-hPPARγ(LBD) TOP (% ref): maximal relative activation vs reference; for Emax: COS-7, maximal relative activation vs reference, read-out: Gal4-hPPARγ(LBD) TOP (% ref); for EC50: Gal4-hPPARγ(LBD) transactivation
T1 construct: Gal4-hPPARγ(LBD); Gal4 (fusion partner); expressed in transfected cells; host or cells: COS-7 (monkey kidney)
T1 sequence (P37231 238-503 limits assumed): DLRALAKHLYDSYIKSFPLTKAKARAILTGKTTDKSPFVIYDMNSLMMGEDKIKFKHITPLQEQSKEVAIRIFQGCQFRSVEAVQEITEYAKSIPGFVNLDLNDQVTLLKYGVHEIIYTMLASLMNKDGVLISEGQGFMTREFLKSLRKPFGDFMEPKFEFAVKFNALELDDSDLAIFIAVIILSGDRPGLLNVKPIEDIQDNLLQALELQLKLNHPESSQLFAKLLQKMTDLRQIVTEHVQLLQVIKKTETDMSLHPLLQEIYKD
Description: (§1) Monkey kidney COS-7 cells were maintained in standard culture conditions (Dulbecco's modified Eagle's minimal medium: DMEM) supplemented with 10% fetal calf serum, 1% sodium pyruvate, 1% essential amino acids and 1% antibiotics at 37° C. in a humidified atmosphere of 5% C02 and 95% air. The medium was changed every 2 days. All tested compounds were dissolved in DMSO. Cells were transfected using 2 μl JetPEI™ (Polyplus transfection)/μg of DNA. Briefly, 40 μg of DNA was transfected in a 225 cm^2 culture flask of adherent COS-7 cells (respecting the 1/50 ratio between the Gal4(RE)_TkpGL3 plasmid and the plasmid coding the nuclear receptor of interest (pGal4-hPPARalpha, pGal4-hPPARgamma, pGal4-hPPARdelta, pGal4-mPPARalpha, pGal4-mPPARgamma and pGal4-mPPARdelta) or of the pGal4phi plasmid (negative control). Cells were enzymatically detached and seeded in 384 well plates at the density of 20,000 cells/well and then incubated for 4 hours at 37° C. The activation was automatically performed, by using the Genesis Freedom 200™ (Tecan), in fresh medium supplemented with 2% of synthetic serum, free of lipids (Ultroser™, Biosepra) supplemented with the tested compounds (compound of interest or reference molecules) or vehicle (DMSO 0.1%). The luciferase activity was measured with the Steady-Glo Luciferase Assay System (Promega, Madison, Wis.). All transactivation experiments were performed at least 2 times. Activation curves were realized using SigmaPlot® (version 7.0 from SPSS Inc.) software and took into account all the experimental points. SimgaPlot® was also used to fit the standard curves and then determine the specific EC50 values, maximum effect versus reference molecules and Hill slope. The Emax effect of each new ligand is represented as the ratio of the maximal induction (plateau) obtained with the new ligand and the induction obtained with the corresponding reference compound. The reference compounds for PPARalpha, PPARgamma and PPARdelta were fenofibrate (100 μM), rosiglitazone (10 μM) and GW501516 (1 μM).

[2] = molecular target: T2, hPPARdelta (Homo sapiens, UniProt Q03181); experiment: Gal4-hPPARdelta transactivation assay in COS-7 cells (luciferase); details: for Gal4-hPPARδ(LBD) TOP (% ref): maximal relative activation vs reference; for Emax: COS-7, maximal relative activation vs reference, read-out: Gal4-hPPARδ(LBD) TOP (% ref); for EC50: Gal4-hPPARδ(LBD) transactivation
T2 construct: Gal4-hPPARδ(LBD); Gal4 (fusion partner); expressed in transfected cells; host or cells: COS-7 (monkey kidney)
T2 sequence (Q03181 211-439 limits assumed): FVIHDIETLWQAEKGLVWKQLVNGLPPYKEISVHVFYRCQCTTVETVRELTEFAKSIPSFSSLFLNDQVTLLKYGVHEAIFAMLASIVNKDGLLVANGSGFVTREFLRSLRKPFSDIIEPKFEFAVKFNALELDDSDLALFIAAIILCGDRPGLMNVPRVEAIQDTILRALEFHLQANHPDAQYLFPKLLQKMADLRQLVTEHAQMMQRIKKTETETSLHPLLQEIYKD
Description: as §1

[3] = molecular target: T3, hPPARalpha (Homo sapiens, UniProt Q07869); experiment: Gal4-hPPARalpha transactivation assay in COS-7 cells (luciferase); details: for Gal4-hPPARα(LBD) TOP (% ref): maximal relative activation vs reference; for Emax: COS-7, maximal relative activation vs reference, read-out: Gal4-hPPARα(LBD) TOP (% ref); for EC50: Gal4-hPPARα(LBD) transactivation
T3 construct: Gal4-hPPARα(LBD); Gal4 (fusion partner); expressed in transfected cells; host or cells: COS-7 (monkey kidney)
T3 sequence (Q07869 239-466 limits assumed): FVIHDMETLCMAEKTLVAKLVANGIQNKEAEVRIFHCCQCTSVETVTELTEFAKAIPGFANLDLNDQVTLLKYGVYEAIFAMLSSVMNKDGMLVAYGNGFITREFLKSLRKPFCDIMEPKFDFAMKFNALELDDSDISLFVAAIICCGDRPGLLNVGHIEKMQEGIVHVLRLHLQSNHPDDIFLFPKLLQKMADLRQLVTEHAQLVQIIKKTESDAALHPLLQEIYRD
Description: as §1

Row | Structure (SMILES) | Gal4-hPPARγ(LBD) TOP (% ref) [1] | Gal4-hPPARδ(LBD) TOP (% ref) [2] | Gal4-hPPARα(LBD) TOP (% ref) [3] | Emax [1] | EC50 [1] | Emax [2] | EC50 [2] | Emax [3] | EC50 [3] | also measured
1 | COC(c1ccc(C(F)(F)F)cc1F)C1CC1c1cc(C)c(OC(C)(C)C(=O)O)c(C)c1 (racemic) [Cpd 12-2, 2-(4-(2-(methoxy(2-fluoro-4-(trifluoromethyl)phenyl)methyl)cyclopropyl)-2,6-dimethylphenoxy)-2-methylpropanoic acid] | 85 % ref | 78 % ref | 37 % ref |  |  |  |  |  |  | 
2 | CCCCOC(c1ccc(OC(F)(F)F)cc1)C1CC1c1cc(C)c(OC(C)(C)C(=O)O)c(C)c1 (racemic) [Cpd 5-2, 2-(4-(2-(butyloxy(4-(trifluoromethoxy)phenyl)methyl)cyclopropyl)-2,6-dimethylphenoxy)-2-methylpropanoic acid] | 72 % ref | 60 % ref | 47 % ref |  |  |  |  |  |  | 
3 | Cc1cc(C2CC2C(OCCC2CCCCC2)c2ccc(OC(F)(F)F)cc2)cc(C)c1OC(C)(C)C(=O)O (racemic) [Cpd 6-1, 2-(4-(2-(cyclohexylethyloxy(4-(trifluoromethoxy)phenyl)methyl)cyclopropyl)-2,6-dimethylphenoxy)-2-methylpropanoic acid] |  |  |  | 71% | 94 nM | 72% | 100 nM | 36% | 68 nM | 
4 | CCOC(c1ccc(OC(F)(F)F)cc1)C1CC1c1cc(C)c(OC(C)(C)C(=O)O)c(C)c1 (racemic) [Cpd 10-2, 2-(4-(2-(ethoxy(4-(trifluoromethoxy)phenyl)methyl)cyclopropyl)-2,6-dimethylphenoxy)-2-methylpropanoic acid] |  | 73 % ref | 43 % ref |  | 39 nM |  | 24 nM |  | 30 nM | 
5 | COC(c1ccc(OC(F)(F)F)cc1)C1CC1c1cc(C)c(OC(C)(C)C(=O)O)c(C)c1 (racemic) [Cpd 14-2, 2-(4-(2-(methoxy(4-(trifluoromethoxy)phenyl)methyl)cyclopropyl)-2,6-dimethylphenoxy)-2-methylpropanoic acid] |  |  |  |  |  |  |  |  |  | Gal4-hPPARγ(LBD) TOP (% ref) ([1]; listed as cpd 14-2): 58 % ref; Gal4-hPPARδ(LBD) TOP (% ref) ([2]; listed as cpd 14-2): 74 % ref; Gal4-hPPARα(LBD) TOP (% ref) ([3]; listed as cpd 14-2): 58 % ref
6 | COC(c1ccccc1OC(F)(F)F)C1CC1c1cc(C)c(OC(C)(C)C(=O)O)c(C)c1 (racemic) [Cpd 13-2, 2-(4-(2-(methoxy(2-(trifluoromethyloxy)phenyl)methyl)cyclopropyl)-2,6-dimethylphenoxy)-2-methylpropanoic acid] | 71 % ref | 57 % ref | 28 % ref |  |  |  |  |  |  | 
7 | COC(c1ccc(C(F)(F)F)cc1C(F)(F)F)C1CC1c1cc(C)c(OC(C)(C)C(=O)O)c(C)c1 (racemic) [Cpd 16-2, 2-(4-(2-((2,4-bis(trifluoromethyl)phenyl)(methoxy)methyl)cyclopropyl)-2,6-dimethylphenoxy)-2-methylpropanoic acid] | 88 % ref | 71 % ref | 50 % ref |  |  |  |  |  |  | 
8 | CCCCCCOc1ccccc1C(OC)C1CC1c1cc(C)c(OC(C)(C)C(=O)O)c(C)c1 (racemic) [Cpd 18-1, 2-(4-(2-((2-(hexyloxy)phenyl)(methoxy)methyl)cyclopropyl)-2,6-dimethylphenoxy)-2-methylpropanoic acid] |  |  |  | 84% | 26 nM | 78% | 157 nM | 44% | 59 nM | 
9 | Cc1cc(C2CC2C(OCc2ccccc2)c2ccc(OC(F)(F)F)cc2)cc(C)c1OC(C)(C)C(=O)O (single isomer, unassigned) [Cpd 11-2, 2-(4-(2-(benzyloxy(4-(trifluoromethoxy)phenyl)methyl)cyclopropyl)-2,6-dimethylphenoxy)-2-methylpropanoic acid] |  |  |  |  | 23 nM |  | 122 nM |  | 100 nM | 
10 | CCOC(c1ccc(OC(F)(F)F)cc1)C1CC1c1cc(C)c(OC(C)(C)C(=O)O)c(C)c1 (racemic) [Cpd 10-1, 2-(4-(2-(ethoxy(4-(trifluoromethoxy)phenyl)methyl)cyclopropyl)-2,6-dimethylphenoxy)-2-methylpropanoic acid] |  |  |  | 74% | 95 nM | 90% | 14 nM | 51% | 38 nM | 
11 | COC(c1ccc(OC(F)(F)F)cc1)C1CC1c1cc(C)c(OC(C)(C)C(=O)O)c(C)c1 (single isomer, unassigned) [Cpd 14-1, 2-(4-(2-(methoxy(4-(trifluoromethoxy)phenyl)methyl)cyclopropyl)-2,6-dimethylphenoxy)-2-methylpropanoic acid] |  |  |  |  | 25 nM |  | 7 nM | 60% | 32 nM | 
12 | COC(c1ccc(SC)cc1)C1CC1c1cc(C)c(OC(C)(C)C(=O)O)c(C)c1 (single isomer, unassigned) [Cpd 3-2, 2-(4-(2-(methoxy(4-(methylthio)phenyl)methyl)cyclopropyl)-2,6-dimethylphenoxy)-2-methylpropanoic acid] |  |  |  |  | 18 nM |  | 169 nM |  | 139 nM | 
13 | COC(c1ccc(SC)cc1)C1CC1c1cc(C)c(OC(C)(C)C(=O)O)c(C)c1 (single isomer, unassigned) [Cpd 3-1, 2-(4-(2-(methoxy(4-(methylthio)phenyl)methyl)cyclopropyl)-2,6-dimethylphenoxy)-2-methylpropanoic acid] |  |  |  | 79% | 35 nM | 77% | 54 nM | 57% | 105 nM | 
14 | COC(c1ccc(OC(F)(F)F)cc1)C1CC1c1cc(C)c(OC(C)(C)C(=O)O)c(C)c1 (stereo not drawn) [Cpd 14-2-1, 2-(4-(2-(methoxy(4-(trifluoromethoxy)phenyl)methyl)cyclopropyl)-2,6-dimethylphenoxy)-2-methylpropanoic acid] |  |  |  | 90% | 16 nM |  |  | 44% |  | EC50 ([2]; listed as cpd 14-2-1): 19 nM; Gal4-hPPARδ(LBD) TOP (% ref) ([2]; listed as cpd 14-2-1): 78 % ref; EC50 ([3]; listed as cpd 14-2-1): 50 nM
15 | COC(c1ccc(SC(F)(F)F)cc1)C1CC1c1cc(C)c(OC(C)(C)C(=O)O)c(C)c1 (racemic) [Cpd 9-1, 2-(4-(2-(methoxy(4-(trifluoromethylthio)phenyl)methyl)cyclopropyl)-2,6-dimethylphenoxy)-2-methylpropanoic acid] |  |  |  | 77% | 11 nM | 89% | 14 nM | 50% | 10 nM | 
16 | COC(c1ccc(OC(F)(F)F)cc1)C1CC1c1ccc(OC(C)(C)C(=O)O)c(C(C)C)c1 (racemic) [Cpd 15-2, 2-(2-isopropyl-4-(2-(methoxy(4-(trifluoromethoxy)phenyl)methyl)cyclopropyl)phenoxy)-2-methylpropanoic acid] | 69 % ref | 96 % ref | 31 % ref |  |  |  |  |  |  | 
